Measurements published in US20150086655A1, “Morinda Citrifolia Juice Formulations Comprising Iridoids” (priority 2013, published 2015).

Key:
E. coli PQ37 [1] = assay: Primary DNA damage test (SOS-chromotest); format: cell-based; conditions: all concentrations tested (7.81-1000 μg mL^−1)
Procedure: The SOS-chromotest in E. coli PQ37 was used to determine the potential for DAA and AA to induce primary DNA damage. This test was carried out according to the previously developed method (Fish et al., 1987). […] E. coli PQ37 was incubated in LB medium in a 96-well plate at 37° C. in the presence of DAA or AA for 2 hours. The DAA and AA concentrations tested were 7.81, 15.6, 31.2, 62.5, 125, 250, 500, and 1000 μg mL^−1. Samples were evaluated in triplicate. […] Induction factors less than two indicate an absence of genotoxic activity.

[2] = Thermal stability of DAA under pasteurization conditions (HPLC); format: physicochemical; conditions: 90° C. at pH 3.3 for one minute
Procedure: Tahitian noni fruit puree as used in this example is the mashed whole fruit, excluding seeds and pericarp. The fruits were originally collected from the Tahitian Islands. One gram of the puree was diluted with 5 mL of H2O-MeOH (1:1) and mixed thoroughly. The solution was then filtered through a nylon microfilter (0.45-μm pore size); the solution was collected into a 5 mL volumetric flask for HPLC analysis. Four batches of noni puree were analyzed in the experiments. Voucher specimens of the noni fruit puree are deposited in our lab. To test iridoid stability, a DAA solution of 0.5 mg/mL was prepared with MeOH. This solution was heated in a water-bath at 90° C. for 1 min, cooled to room temperature, and analyzed by HPLC.
Noni fruit juice is usually subjected to heat pasteurization during commercial processing. Pasteurization is usually employed in noni industry, i.e., heating up to 87.7° C. for several seconds. In this study, the stability of DAA was conducted. DAA was exposed to 90° C. at pH 3.3 for one minute to determine its thermal stability at acidic conditions.

E. coli PQ37 [3] = format: cell-based; conditions: 250 ug mL^−1 iridoid plus 1.25 ug mL^−1 4NQO
Procedure: The SOS-chromotest in E. coli PQ37 was used to determine the potential for iridoids in noni fruit from French Polynesia to prevent primary DNA damage. E. coli PQ37 was incubated at 37° C. in the presence of deacetylasperulosidic acid and asperulosidic acid at a concentration of 250 ug mL^−1 in a 96-well plate. Replicate samples were evaluated.

| SMILES | induction of SOS repair versus blank (E. coli PQ37 [1]) | DAA content before and after heating (thermal stability) [2] | induction factors (mean±standard deviation) (E. coli PQ37 [3]) |
| --- | --- | --- | --- |
| CC(=O)OCC1=C[C@H](O)[C@@H]2C(C(=O)O)=CO[C@@H](O[C@@H]3O[C@H](CO)[C@@H](O)[C@H](O)[C@H]3O)[C@H]12 [AA, asperulosidic acid] | did not induce any SOS repair | – | – |
| O=C(O)C1=CO[C@@H](O[C@@H]2O[C@H](CO)[C@@H](O)[C@H](O)[C@H]2O)[C@@H]2C(CO)=C[C@H](O)[C@H]12 [DAA, deacetylasperulosidic acid] | did not induce any SOS repair | no difference in the DAA contents before and after heating | 0.98±0.02 |
